The target in the assay is T1, human Nox4 (Homo sapiens, UniProt Q9NPH5).
T1 construct: expressed in transfected cells; host or cells: T-REx-293 (hNOX4 T-REx-293), tetracycline-induced; membrane fraction
T1 sequence (Q9NPH5 1-578): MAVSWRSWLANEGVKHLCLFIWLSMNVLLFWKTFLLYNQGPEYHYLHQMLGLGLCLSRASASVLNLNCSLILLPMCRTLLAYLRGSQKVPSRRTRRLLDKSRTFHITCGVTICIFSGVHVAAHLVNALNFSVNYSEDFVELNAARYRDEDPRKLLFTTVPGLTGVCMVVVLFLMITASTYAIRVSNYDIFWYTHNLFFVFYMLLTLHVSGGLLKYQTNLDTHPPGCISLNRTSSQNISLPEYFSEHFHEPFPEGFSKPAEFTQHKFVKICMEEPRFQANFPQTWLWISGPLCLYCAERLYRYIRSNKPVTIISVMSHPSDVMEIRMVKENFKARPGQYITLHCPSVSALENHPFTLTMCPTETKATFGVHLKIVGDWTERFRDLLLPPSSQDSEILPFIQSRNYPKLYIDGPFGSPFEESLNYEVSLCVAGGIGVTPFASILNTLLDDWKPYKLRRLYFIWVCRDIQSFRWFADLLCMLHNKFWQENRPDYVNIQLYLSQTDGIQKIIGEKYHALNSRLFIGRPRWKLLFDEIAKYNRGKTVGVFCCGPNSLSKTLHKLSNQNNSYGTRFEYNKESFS
T1 sequence (P13498 2-195 partner limits assumed): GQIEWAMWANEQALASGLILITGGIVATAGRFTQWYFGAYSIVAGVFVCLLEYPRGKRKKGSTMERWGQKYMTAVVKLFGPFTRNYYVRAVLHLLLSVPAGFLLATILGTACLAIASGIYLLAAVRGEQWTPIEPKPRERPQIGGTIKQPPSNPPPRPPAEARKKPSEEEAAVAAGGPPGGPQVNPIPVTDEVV
Briefly: ROS production by membranes expressing human Nox4, cell-free Amplex Red assay. Type of assay: biochemical. Particulars: cell-free membranes, Amplex Red; Cheng-Prusoff; average of at least three experiments in triplicate; read-out: Ki hNox4. In outline: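 Membranes from tetracycline-induced (1 μg/ml, 24 h) T-REx cells overexpressing human Nox4, incubated in PBS with Amplex Red, HRP and co-factors; NADPH starts ROS production. Compounds 1 nM-100 μM, 20 min at 37° C.; fluorescence (ex 544/em 590 nm) over 10 min; Ki via Cheng-Prusoff, ≥3 experiments in triplicate.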

As a reminder, the Ki is a measure of affinity in units of concentration, obtained from inhibition or displacement. With `COc1ccc(-c2c3c(=O)n(-c4ccccc4OC)[nH]c3cc(=O)n2Cc2cccnc2)c(F)c1` [Compound (1), 4-(2-fluoro-4-methoxyphenyl)-2-(2-methoxyphenyl)-5-(pyridin-3-ylmethyl)-1H-pyrazolo[4,3-c]pyridine-3,6(2H,5H)-dione], the Ki amounted to 75 nM.

The values above are taken from patent publication US20140323500A1, “NADPH OXIDASE 4 INHIBITORS AND USE THEREOF” (GENKYOTEX SA, priority 2011, published 2014).
